Source: patent US7183440B2, “Pharmaceutically useful compounds” (priority 2005, dated 2007)
Like-named read-outs stand apart in the source and are kept apart here.

Key:
HSF = HSF activation, luciferase reporter controlled by the human hsp70 promoter in HeLa cell clone 13B; format: cell-based; details: concentration at which the compound doubled HSF activity, HeLa clone 13B, 8 h treatment, read-out: HSF AC200/μM
Procedure: (§1) HeLa cell clone 13B, stably transfected with a luciferase reporter plasmid controlled by the human hsp70 promoter, and HeLa κB-transformed cells, stably transfected with a luciferase reporter plasmid controlled by a synthetic NF-κB-STM construct, were maintained in DMEM medium supplemented with 10% FBS, L-glutamine (2 mM) and G418 (250 μg/ml) at 37° C. in a 5% CO2 humidified atmosphere.
(§2) Cells were seeded at a density of 4×10^4 cells/well in 96-well plates. After 18–20 h, the medium was removed and cells were treated for 8 h with the test compounds (100 μl) at the appropriate dilutions in serum-free medium. For the NF-κB-dependent reporter gene assay, cells were stimulated with TPA (25 ng/ml) 2 h after exposure to the compounds.
(§3) After incubation, the medium was removed and cells were lysed in 10 μl of lysis buffer. The luciferase activity was determined by adding 100 μl of substrate and measuring the release of light using a Victor 1420 microplate reader (Wallac, Finland).
(§4) The AC200/μM for HSF is the concentration at which the tested compound doubled the HSF activity in this assay. The IC50/μM for NF-κB is the concentration at which the tested compound halved the NF-κB activity in this assay. […] The LC50/μM is the concentration at which the tested compound killed half the cells in each assay. […] (n.d. means not done)

NF-κB = experiment: NF-κB-dependent luciferase reporter gene assay in HeLa κB-transformed cells stimulated with TPA; format: cell-based, human; details: concentration that halved NF-κB activity, HeLa reporter cells, TPA 25 ng/ml, 8 h treatment
Procedure: as §1, §2, §3
The fragment Kpn I-BamH I from the pGL3 basic vector containing the luciferase gene (PROMEGA) was inserted in the pcDNA3 vector (INVITROGEN) digested with Bgl II-KpnI. (This digestion removes the CMV-promoter from pcDNA3.) The resulting new vector was digested with Kpn I-Hind III and a promoter containing a ‘5×NF-κB binding sites-TATA box’ sequence was inserted upstream of the luciferase gene. This vector has been named STM.
To obtain stable HeLa cell lines expressing the luciferase gene under the control of NF-κB, HeLa cells were transfected (using lipofectamine plus GIBCO) with the STM-Pvu I linearized vector, and selected for 20 days with G418 (800 μg/ml). After selection, the resistant HeLa cell pool was controlled (in quadruplicate samples) for luciferase activity after stimulation with TNFα, IL-1 and TPA.
as §4

HeLa cells [1] = experiment: in vitro; format: cell-based; details: human, 8 h
Procedure: HeLa cells were plated in 96-well microtiter plates in 100 μl culture medium (4×10^4/well). After 20 hours, the cells were exposed to the test compounds at different dilutions and incubated for the next 8 h at 37° C. in a 5% CO2 humidified atmosphere. After 6 h incubation, the Alamar Blue was added in an amount equal to 10% of the culture volume (10 μl). Two hours after the addition of the Alamar Blue, the fluorescence was measured using a Victor 1420 microplate reader.

HeLa cells [2] = experiment: in vitro; details: read-out: Toxicity Neutral Red LC50/μM; HeLa cells; concentration that killed half the cells
Procedure: (§5) This assay was carried out on HeLa cells using a technique analogous to that described below in Example 36(b) for Monkey Kidney 37RC cells.
as §4
(§6) Cell viability was determined using the Neutral Red assay. 37RC cells were seeded at density of 6×10^4 cells/well in 24-well plates and incubated for 24 h. Confluent 37RC monolayers were treated with the test compounds at different dilutions for 24 h at 37° C. After incubation, the medium was removed and the cells were incubated with RPMI medium containing 40 μg/ml Neutral Red dye (500 μl/well). After 2 h at 37° C., the monolayers were washed with phosphate-buffered saline (PBS) and then with a solution containing 1% CaCl2 and 0.5% formaldehyde. After washing, a solution containing 1% acetic acid/50% ethanol was added to the monolayers (250 μl/well). After 10 min at room temperature, the absorbance was determined with a microplate reader (Victor 1420, Wallac) at 540 nm.

in vitro = experiment: in vitro
Procedure: as §5, §4, §6

Sendai virus = experiment: Replication of Sendai virus in 37RC cells, virus yield by haemagglutinin titration; format: cell-based; details: Respirovirus muris; 50% inhibitory dose/concentration at 24 hours, Sendai virus in 37RC cells; read-out: ID50/μM
Procedure: Monkey kidney 37RC cells were grown at 37° C. in RPMI medium supplemented with 5% foetal bovine serum (FBS), L-glutarine (2 mM) and antibiotics. Sendai virus was grown in the allantoic cavity of 10-day-old embryonated eggs. Viral titre was expressed in haemagglutinating units (HAU) per ml; haemagglutinin titration was done according to standard procedures, as described in C. Amici et al. (J. Virol. 68: 6890–6899, 1994). […] Confluent 37RC monolayers were infected with Sendai Virus (5 HAU/ml) for 1 h at 37° C. After 1 hour incubation, viral inoculum was removed and cells were treated with the test compounds at different concentrations. Virus yields were determined 24 h post infection by haemagglutinin titration. Mock-infected cells were treated identically and processed for cytotoxicity assay (Neutral Red assay) at the same time (see below). The results were expressed as HAU/ml (each point represents the mean of duplicate samples).

Monkey kidney 37RC cells = format: cell-based; details: concentration 100% toxic to uninfected 37RC cells, visually by microscopy

SMILES	EC (2-fold HSF activity) (HSF; Homo sapiens)	IC50 (NF-κB; Homo sapiens)	CC50 (HeLa cells [1])	CC50 (HeLa cells [2])	EC (2-fold HSF activity) (HSF)	IC50 (NF-κB)	CC50 at 24 h (in vitro; human)	IC50 (Sendai virus)	TD100/μM (Monkey kidney 37RC cells)	CC50 at 24 h (in vitro)
CCCCCC/C=C1/C(=O)C=CC1C (stereo not drawn) [CTC-162]	< 6.2 µM	< 6.2 µM	234 µM							
COC(=O)[C@H](CS[C@@H]1CC(=O)C[C@H]1NC(=O)Oc1ccccc1)NC(=O)OC(C)(C)C [CTM-236, (R)-2-tert-Butoxycarbonylamino-3-((1R,2R)-4-oxo-2-phenoxy-carbonyl-amino-cyclopentyl-sulfanyl)-propionic acid methyl ester]				76 µM	13 µM	10 µM				
CCOC(=O)N(C(=O)OC(C)(C)C)C1C=CC(=O)C1 (stereo not drawn) [CTC-267, N-tert-Butoxycarbonyl-(4-Oxocyclopent-2-enyl)-carbamic acid ethyl ester]	18 µM	35 µM					233 µM			
Cc1cc(C)c(/C=C2/C(=O)C=C[C@@H]2NC(=O)OC(C)(C)C)c(C)c1 [CTC-285, (1S)-[4-Oxo-(E)-5-(2,4,6-trimethyl-benzylidene)-cyclopent-2-enyl]-carbamic acid tert-butyl ester]	< 6.2 µM	10 µM					25 µM			
CCCCC1C=CC(=O)/C1=C/C1CC1 (stereo not drawn) [CTC-177]	8 µM	14 µM	239 µM							
CCOC(=O)NC1C=CC(=O)C1 (stereo not drawn) [CTC-271, (4-Oxocyclopent-2-enyl)-carbamic acid ethyl ester]	49 µM	39 µM					104 µM			
CC(C)/C=C1/C(=O)C=CC1C (stereo not drawn) [CTC-154]	13 µM	14 µM	> 800 µM							
CC1C=CC(=O)/C1=C/c1ccccc1 (stereo not drawn) [CTC-150, 4-Methyl-5-[1-phenyl-meth-(E)-ylidene]-cyclopent-2-enone]	3 µM	7 µM	314 µM					0.9 µM	50 µM	
CCCCC1C=CC(=O)/C1=C/C(C)C (stereo not drawn) [CTC-145]	13 µM	38 µM	506 µM					0.3 µM	10 µM	
CCCCC1C=CC(=O)/C1=C/CC(C)C (stereo not drawn) [CTC-122]	13 µM	12 µM	227 µM					0.3 µM	50 µM	
O=C1C=CC(NC(=O)Oc2ccccc2)C1 (stereo not drawn) [CTC-260, (4-Oxocyclopent-2-enyl)-carbamic acid phenyl ester]	10 µM	9 µM								74 µM
O=C1C=CC(NC(=O)CCl)C1 (stereo not drawn) [CTC-304, 2-Chloro-N-(4-oxo-cyclopent-2-enyl)-acetamide]	< 6.2 µM	< 6.2 µM					79 µM			
